From patent publication US20200008426A1, “ACTIVE COMPOUND COMBINATIONS” (BAYER AKTIENGESELLSCHAFT, priority 2017, published 2020)
Several values for one entry are separate records, joined by “and”; a condition that tells them apart may be missing. Equal values may be shown once.

Assays:
[1] = system: Alternaria alternata; test: In vitro-Test with Alternaria alternata; assay type: cell-based
[2] = system: Septoria tritici; test: In vitro-Test with Septoria tritici; assay type: cell-based; conditions: compound alone
[3] = system: Venturia inaequalis; test: In vivo preventive test on Venturia (apples); conditions: 10 days after inoculation
Protocol: The test is evaluated 10 days after the inoculation.

[4] = system: Puccinia triticina; test: In vivo preventive Puccinia triticina test (wheat); conditions: 8 days after inoculation
Protocol: After the spray coating has been dried, the plants are sprayed with a spore suspension of Puccinia triticina.
(§1) The test is evaluated 8 days after the inoculation.

[5] = system: Septoria tritici; test: In vivo preventive Septoria tritici test (wheat); conditions: 21 days after inoculation
Protocol: After the spray coating has been dried, the plants are sprayed with a spore suspension of Septoria tritici.
The test is evaluated 21 days after the inoculation.

[6] = system: Fusarium culmorum; test: In vitro-Test with Fusarium culmorum; assay type: cell-based; conditions: 0.2 ppm
[7] = system: Pyrenophora teres; test: In vitro-Test with Pyrenophora teres; assay type: cell-based
[8] = system: Ustilago avenae; test: In vitro-Test with Ustilago avenae; assay type: cell-based; conditions: compound alone
[9] = system: fish (Danio rerio) embryos; test: In vivo ecotoxicity screening test on fish (Danio rerio); conditions: active compound alone; fish embryos, 96 h, 28.5° C.
Protocol: with ECxi the Effect Concentration (EC) of each chemical i (in ppm) causing x % effect on the ecotoxicity test endpoint.
For each compound combination, the predicted ECx value is calculated. It is then compared to an experimentally measured value. The ratio of predicted versus measured effect for the combination (thereafter called the Model Deviation Ratio or MDR) is then calculated.
The environmental effect of the compound combinations was measured experimentally in laboratory ecotoxicity screening studies with fish (Danio rerio). […] Mortality was recorded after 96 h for each tested concentration and a reference control. […] Then, the MDR values were calculated.
• Solvent: 0.5% by weight dimethyl sulfoxide
This concentrate is then diluted with water to the desired a.i. concentration, leading to a maximal solvent concentration of 0.5% by weight. The compounds alone and the combinations were tested for five increasing concentrations between 0.01 and 1000 ppm a.i., (e.g. 0.1, 1.0, 10 and 100 ppm a.i). For the combinations, compounds A and B were mixed in a weight ratio of 5:1 to 1:5 and five increasing concentrations were tested for each ratio.

[10] = system: Sphaerotheca fuliginea; test: In vivo preventive test on Sphaerotheca (cucumbers); conditions: Table D1, 7 days after inoculation
[11] = system: Blumeria graminis f.sp. hordei; test: In vivo preventive Blumeria test (barley); conditions: 7 days after inoculation
[12] = system: Botrytis cinerea; test: In vitro-Test with Botrytis cinerea; assay type: cell-based
[13] = system: Pyricularia oryzae; assay type: cell-based; conditions: 5 ppm
[14] = system: Leptosphaeria nodorum; test: In vivo preventive Leptosphaeria nodorum test (wheat); conditions: Table G1, 8 days after inoculation
Protocol: After the spray coating has been dried, the plants are sprayed with a spore suspension of Leptosphaeria nodorum.
as §1

[15] = system: Rhizoctonia solani; test: In vitro-Test with Rhizoctonia solani; assay type: cell-based; conditions: compound alone
[16] = system: Phakopsora pachyrhizi; test: In vivo preventive test on Phakopsora (soybeans); conditions: Table C3, 7 days after inoculation

CC(C)(C)[C@@H](O)[C@@H](Cc1ccc(Cl)cc1)n1cncn1 (racemic) [Example 1.015, paclobutrazol]
Efficacy % ([1]; 1 ppm): 0% | Efficacy % ([2]; 1 ppm): 13%

OC(Cc1ccccc1Cl)(Cn1nc[nH]c1=S)C1(Cl)CC1 (centres unmarked) [Example 1.018, prothioconazole]
Efficacy in % found ([3]; Table E1, 2.5 ppm a.i.): 0% | Efficacy in % found ([3]; Table E1, 5 ppm a.i.): 30% | Efficacy in % found ([3]; Table E1, 10 ppm a.i.): 61% | Efficacy in % found ([4]; 25 ppm a.i.): 0% | Efficacy in % found ([4]; 50 ppm a.i.): 0% | Efficacy in % found ([4]; 100 ppm a.i.): 0% | Efficacy in % found ([4]; Table H1, 25 ppm a.i.): 0% | Efficacy in % found ([4]; Table H1, 50 ppm a.i.): 0% | Efficacy in % found ([4]; Table H1, 100 ppm a.i.): 0% | Efficacy in % found ([5]; 25 ppm a.i.): 0% | Efficacy in % found ([5]; 50 ppm a.i.): 14% | Efficacy in % found ([5]; 100 ppm a.i.): 43% | Efficacy % ([1]; 0.04 ppm): 0% | Efficacy % ([1]; 0.2 ppm): 91% | Efficacy % [6]: 99% | Efficacy % ([7]; 0.2 ppm): 22% | Efficacy % ([8]; 1 ppm): 85% | Efficacy % ([8]; 5 ppm): 100% | Ecotoxicity LC50-96 h found [9]: 3.16 ppm a.i. | Efficacy in % found ([10]; 2.5 ppm a.i.): 71% | Efficacy in % found ([10]; 5 ppm a.i.): 96% | Efficacy in % found ([10]; 10 ppm a.i.): 100%

CCCN(CC)CC1COC2(CCC(C(C)(C)C)CC2)O1 (centres unmarked) [Example 1.020, spiroxamine]
Efficacy in % found ([3]; Table E1, 25 ppm a.i.): 0% | Efficacy in % found ([3]; Table E1, 50 ppm a.i.): 0% | Efficacy in % found ([3]; Table E1, 100 ppm a.i.): 14% | Efficacy in % found ([11]; Table F2, 62.5 ppm a.i.): 33% | Efficacy in % found ([11]; Table F2, 125 ppm a.i.): 89% | Efficacy in % found ([11]; Table F2, 250 ppm a.i.): 100% | pest or weed control at 62.5 ppm ([4]; Puccinia triticina, 192 h, 62.5 ppm a.i., read-out: Efficacy in % found): 11% | pest or weed control at 125 ppm ([4]; Puccinia triticina, 192 h, 125 ppm a.i., read-out: Efficacy in % found): 33% | pest or weed control at 250 ppm ([4]; Puccinia triticina, 192 h, 250 ppm a.i., read-out: Efficacy in % found): 33% | pest or weed control at 62.5 ppm ([5]; Zymoseptoria tritici, 504 h, 62.5 ppm a.i., read-out: Efficacy in % found): 0% | pest or weed control at 125 ppm ([5]; Zymoseptoria tritici, 504 h, 125 ppm a.i., read-out: Efficacy in % found): 14% | pest or weed control at 250 ppm ([5]; Zymoseptoria tritici, 504 h, 250 ppm a.i., read-out: Efficacy in % found): 57% | Efficacy % ([12]; 4 ppm): 7% | Efficacy % ([12]; 20 ppm): 9% | Efficacy % ([2]; 0.8 ppm): 25% | Efficacy % ([2]; 4 ppm): 34% | Efficacy % ([8]; 20 ppm): 12% | Efficacy % ([8]; 100 ppm): 100% | Ecotoxicity LC50-96 h found [9]: 14.81 ppm a.i. | Efficacy in % found ([10]; 25 ppm a.i.): 31% | Efficacy in % found ([10]; 50 ppm a.i.): 37% | Efficacy in % found ([10]; 100 ppm a.i.): 49%

Cn1cc(C(=O)Nc2ccc(F)cc2-c2ccc(Cl)c(Cl)c2)c(C(F)F)n1 [Example 2.002, bixafen]
Efficacy in % found ([4]; Table H1, 25 ppm a.i.): 22% | Efficacy in % found ([4]; Table H1, 50 ppm a.i.): 33% | Efficacy in % found ([4]; Table H1, 100 ppm a.i.): 67% | Efficacy % ([1]; 0.04 ppm): 55% | Efficacy % ([1]; 0.2 ppm): 84% and 57% | Efficacy % ([1]; 1 ppm): 88% | Efficacy % ([12]; 1 ppm): 63% | Efficacy % ([12]; 5 ppm): 91% | Efficacy % ([7]; 0.2 ppm): 46% | Efficacy % ([7]; 1 ppm): 60% | Efficacy % ([7]; 5 ppm): 72% | Ecotoxicity LC50-96 h found [9]: 0.154 ppm a.i.

O=C(NCCc1ncc(C(F)(F)F)cc1Cl)c1ccccc1C(F)(F)F [Example 2.005, fluopyram]
Efficacy in % found ([11]; Table F1, 15 ppm a.i.): 0% | Efficacy in % found ([11]; Table F1, 30 ppm a.i.): 0% | Efficacy in % found ([11]; Table F1, 60 ppm a.i.): 29% | Efficacy in % found ([4]; 15 ppm a.i.): 0% | Efficacy in % found ([4]; 30 ppm a.i.): 0% | Efficacy in % found ([4]; 60 ppm a.i.): 0% | Efficacy in % found ([4]; Table H1, 15 ppm a.i.): 0% | Efficacy in % found ([4]; Table H1, 30 ppm a.i.): 0% | Efficacy in % found ([4]; Table H1, 60 ppm a.i.): 33% | Efficacy in % found ([5]; 30 ppm a.i.): 38% and 29% | Efficacy in % found ([5]; 60 ppm a.i.): 88% and 71% | Efficacy % ([2]; 0.04 ppm): 43% and 22% | Efficacy % ([2]; 0.2 ppm): 93% and 67% | Efficacy % ([8]; 5 ppm): 0% | Ecotoxicity LC50-96 h found [9]: >200 ppm a.i.

CON=C(C(=O)OC)c1ccccc1CON=C(C)c1cccc(C(F)(F)F)c1 [Example 3.020, trifloxystrobin]
pest or weed control at 2.5 ppm ([4]; Puccinia triticina, 192 h, Table H1, 2.5 ppm a.i., read-out: Efficacy in % found): 0% | pest or weed control at 5 ppm ([4]; Puccinia triticina, 192 h, Table H1, 5 ppm a.i., read-out: Efficacy in % found): 0% | pest or weed control at 10 ppm ([4]; Puccinia triticina, 192 h, Table H1, 10 ppm a.i., read-out: Efficacy in % found): 11% | pest or weed control at 2.5 ppm ([5]; Zymoseptoria tritici, 504 h, 2.5 ppm a.i., read-out: Efficacy in % found): 29% | pest or weed control at 5 ppm ([5]; Zymoseptoria tritici, 504 h, 5 ppm a.i., read-out: Efficacy in % found): 29% | pest or weed control at 10 ppm ([5]; Zymoseptoria tritici, 504 h, 10 ppm a.i., read-out: Efficacy in % found): 29% | Efficacy % ([7]; 5 ppm): 6% | Efficacy % [13]: 98% | Efficacy % ([2]; 5 ppm): 90% | Ecotoxicity LC50-96 h found [9]: 0.24 ppm a.i.

O=C(Nc1ccccc1)N(Cc1ccc(Cl)cc1)C1CCCC1 [Example 4.005, pencycuron]
Efficacy in % found ([3]; Table E1, 25 ppm a.i.): 0% | Efficacy in % found ([3]; Table E1, 50 ppm a.i.): 0% | Efficacy in % found ([3]; Table E1, 100 ppm a.i.): 4% | Efficacy in % found ([14]; 62.5 ppm a.i.): 14% | Efficacy in % found ([14]; 125 ppm a.i.): 14% | Efficacy in % found ([14]; 250 ppm a.i.): 29% | Efficacy in % found ([4]; 62.5 ppm a.i.): 0% | Efficacy in % found ([5]; 62.5 ppm a.i.): 0% | Efficacy in % found ([5]; 125 ppm a.i.): 0% | Efficacy in % found ([5]; 250 ppm a.i.): 0% | Efficacy % ([7]; 20 ppm): 17% | Efficacy % ([7]; 100 ppm): 5% | Efficacy % ([2]; 20 ppm): 8% | Efficacy % ([2]; 100 ppm): 0% | Ecotoxicity LC50-96 h found [9]: >200 ppm a.i.

CCCOc1nc2ccc(I)cc2c(=O)n1CCC [Example 13.004, proquinazid]
Efficacy in % found ([3]; Table E1, 12.5 ppm a.i.): 0% | Efficacy in % found ([3]; Table E1, 25 ppm a.i.): 0% | Efficacy in % found ([3]; Table E1, 50 ppm a.i.): 0% | Efficacy in % found ([14]; 250 ppm a.i.): 0% | Efficacy in % found ([14]; 500 ppm a.i.): 14% | Efficacy in % found ([14]; 1000 ppm a.i.): 14% | Efficacy in % found ([5]; 250 ppm a.i.): 0% | Efficacy in % found ([5]; 500 ppm a.i.): 0% | Efficacy in % found ([5]; 1000 ppm a.i.): 0% | Efficacy % ([1]; 0.8 ppm): 0% | Efficacy % ([1]; 4 ppm): 0% | Efficacy % ([2]; 20 ppm): 55% | Efficacy % ([2]; 100 ppm): 28% | Ecotoxicity LC50-96 h found [9]: 9.89 ppm a.i.

mancozeb [Example 5.013]
Efficacy in % found ([3]; Table E2, 12.5 ppm a.i.): 0% | Efficacy in % found ([3]; Table E2, 25 ppm a.i.): 18% | Efficacy in % found ([3]; Table E2, 50 ppm a.i.): 95% | Efficacy in % found ([14]; 250 ppm a.i.): 14% | Efficacy in % found ([14]; 500 ppm a.i.): 14% | Efficacy in % found ([14]; 1000 ppm a.i.): 14% | Efficacy in % found ([5]; 250 ppm a.i.): 29% | Efficacy in % found ([5]; 500 ppm a.i.): 29% | Efficacy in % found ([5]; 1000 ppm a.i.): 29% | Efficacy % ([7]; 20 ppm): 81% | Efficacy % ([7]; 100 ppm): 83% | Efficacy % ([15]; 4 ppm): 57% | Efficacy % ([15]; 20 ppm): 99% | Efficacy in % found ([16]; 12.5 ppm a.i.): 23% | Efficacy in % found ([16]; 25 ppm a.i.): 45% | Efficacy in % found ([16]; 50 ppm a.i.): 90%
